Consider 38 compounds from US8741942B2, “Inhibitors of cellular necrosis” (President and Fellows of Harvard College, priority 2003, dated 2014).

Data set [1] has as its system human FAD-deficient Jurkat T cells challenged with human TNF-alpha. Briefly: Anti-necrotic activity, FADD-/- Jurkat T cells challenged with human TNF-alpha. As to conditions: 10 ng/ml human TNFα, CellTiter-Glo ATP assay, read-out: EC50 (μM) for cell viability. In kind it is cell-based. The method, then:
Compounds were screened for anti-necrotic activity utilizing human FAD-deficient Jurkat T cells challenged with human TNF-alpha. FADD−/− Jurkat cells (Juo P, et al. Cell Growth Differ. 1999, 10(12):797-804) were seeded at the density of 5*10^5 cells/mL into 96 well white plates (Costar) at 100 μL/well. Cells were treated in duplicate with various concentrations of test compounds in the presence or absence of 10 ng/ml human TNFα (Cell Sciences). After 30 hours viability of the cells was determined using luminescent ATP-based cell viability assay (CellTiter-Glo, Promega). Percentage of protection by the compound was calculated as a ratio of the cps (counts per second) value in the well treated with the test compound and TNFα to the cps value in the well treated with the compound alone.
(In general: In ATP-based viability assays light output follows the ATP content of the culture.)

For data set [2], the system named is human Jurkat T cells challenged with Fas ligand and treated with zVAD. Description: Anti-necrotic activity, human Jurkat T cells challenged with Fas ligand and treated with zVAD. The conditions noted are these: viability after 36 h by CellTiter ATP assay, read-out: EC50 (μM) for cell viability. It is filed as cell-based. An excerpt: (§1) After a cell receives an initial assault either apoptotic, necrotic, or both apoptotic and necrotic mechanisms of cell death may be activated. The present example focuses on the necrosis pathway. Several chemical assaults were used to induce cell death, including exposure to tumor necrosis factor alpha (TNF-α), Fas ligand or β-amyloid protein. Various cell types were also used, including human neuroblastoma cells (SH-SY5Y) and human Jurkat T cells. In order to block the apoptosis mechanism, a general caspase inhibitor, N-benzyloxycarbonyl-valine-alanine-aspartic acid-(OMe) fluoromethyl ketone (zVAD, Polyerino, A. J.; Patterson, S. D. J. Biol. Chem. 1997, 272, 7013-7021), was used. […] Resulting cell death occurs by a necrosis-like mechanism (Holler, N., et al. Nature Immunol. 2000, 1, 489-495; Kawahara, A., et al. J. Cell Biol. 1998, 143, 1353-1360). Experimental compounds were applied to the cells in attempts to rescue them from this necrotic death. Therefore, compounds found to restore cell viability using this protocol are inhibitors of the necrosis pathway.
Compounds were also tested in another necrosis assay utilizing human Jurkat T cells, Fas ligand to induce cell death, and zVAD to inhibit the apoptosis pathway. After 36 h, cell viability was measure by the commercial CellTiter ATP cell viability assay (Promega).
Compounds were screened for anti-necrotic activity utilizing human Jurkat T cells challenged with Fas ligand and treated with zVAD to inhibit the apoptosis pathway.

The subject of data set [3] is human B cell line U-937. Briefly: Library screen for inhibition of cell death induced by TNF-α in the presence of zVAD. It is filed as cell-based. The conditions noted are these: U-937 cells.
From the text: as §1
Compound libraries were screened for inhibition of cell death induced by TNF-α in the presence of zVAD in human B cell line U-937.

Where a name gives a salt, the structure may show the parent alone. Read-outs that look alike come from different tables or passages of the source. A value given as a limit tells only on which side of the number the result lay.

As usually defined, the EC50 is the midpoint of the concentration-response curve. On to `CN1CC(Cc2c[nH]c3c(Cl)cccc23)NC1=O` (centres unmarked) [Compound 893-52, 4-(7-chloro-1H-indol-3-ylmethyl)-1-methyl-imidazolidin-2-one], for which the EC50 in data set [1] (Homo sapiens, Jurkat, 30 h) was above 10 µM.
For `CN1C(=O)C(Cc2c[nH]c3ccccc23)NC1=S` (centres unmarked) [Compound 893-01, 5-(1H-Indol-3-ylmethyl)-3-methyl-2-thioxo-imidazolidin-4-one], in data set [2], the EC50 turned out to be 6 µM.
As for `CN1C(=O)NC(Cc2c[nH]c3ccccc23)C1=O` (centres unmarked) [Compound 893-22, 5-(1H-Indol-3-ylmethyl)-3-methylimidazolidine-2,4-dione], the concentration for a half-maximal effect (EC50) in data set [1] (Homo sapiens, Jurkat, 30 h) worked out at 0.439 µM.
One may read the melting point as the temperature of the solid-liquid transition. Turning to `O=C1NC(=O)C(Cc2c[nH]c3ccccc23)N1` (centres unmarked) (as salt: potassium), the melting point was 229 to 232 °C.
For `CN1C(=O)C(Cc2c[nH]c3ccccc23)NC1=S` (centres unmarked) [Compound 1], in data set [3], the “inhibition of cell death induced by TNF-α in the presence of zVAD” value is on record as “inhibitor of necrosis”.
On to `CN1C(=O)C(Cc2cn(C)c3ccccc23)NC1=S` (centres unmarked) [Compound 893-08, 3-Methyl-5-(1-methyl-1H-Indol-3-ylmethyl)-2-thioxo-imidazolidin-4-one], for which the melting point was 155 to 157 °C. Further, in data set [2], the EC50 came to 35 µM.
As to `CC(C)N1C(=O)NC(Cc2c[nH]c3c(Cl)cccc23)C1=O` (centres unmarked) [Compound 893-44], the EC50 in data set [1] (Homo sapiens, Jurkat, 30 h) was above 10 µM.
`CN1C(=O)OC(Cc2c[nH]c3c(Cl)cccc23)C1=O` (centres unmarked) [Compound 893-53, 5-(7-chloro-1H-indol-3-ylmethyl)-3-methyl-oxazolidine-2,4-dione]: the half-maximal effective concentration (EC50) in data set [1] (Homo sapiens, Jurkat, 30 h) was determined as 0.359 µM.
As to `COc1cccc2c(CC3NC(=S)N(C)C3=O)c[nH]c12` (centres unmarked) [Compound 893-13, 5-(7-Methoxy-1H-indol-3-ylmethyl)-3-methyl-2-thioxo-imidazolidin-4-one], the melting point fell in the range of 219 to 222 °C. The EC50 in data set [2] came out at 10.3 µM.
Take `CN1C(=O)N[C@@H](Cc2c[nH]c3c(Cl)cccc23)C1=O` [Compound 893-31]: in data set [1] (Homo sapiens, Jurkat, 30 h), the EC50 was 0.303 µM.
In the case of `CN1C(=O)C(Cc2c[nH]c3cc(F)ccc23)NC1=S` (centres unmarked) [Compound 893-05, 5-(6-Fluoro-1H-Indol-3-ylmethyl)-3-methyl-2-thioxo-imidazolidin-4-one], the melting point fell in the range of 126 to 129 °C. Also, in data set [2], the EC50 turned out to be 2.3 µM.
The compound `CN1C(=O)C(Cc2c[nH]c3ccc(O)cc23)NC1=S` (centres unmarked) [Compound 893-07, 5-(5-Hydroxy-1H-Indol-3-ylmethyl)-3-methyl-2-thioxo-imidazolidin-4-one] came in with a melting point of 166 to 168 °C.
`CN1C(=O)C(Cc2c[nH]c3c(F)cccc23)NC1=S` (centres unmarked) [Compound 893-09, 5-(7-Fluoro-1H-Indol-3-ylmethyl)-3-methyl-2-thioxo-imidazolidin-4-one]: the melting point lay within 217 to 220 °C. The 50% effective concentration (EC50) in data set [2] was found to be 4 µM.
In the case of `CN1C(=O)C(Cc2c[nH]c3c(Cl)cccc23)NC1=S` (centres unmarked) [Compound 893-10, 5-(7-Chloro-1H-indol-3-ylmethyl)-3-methyl-2-thioxo-imidazolidin-4-one], the EC50 in data set [2] was 1.5 µM.
Take `Cc1cccc2c(CC3NC(=O)N(C)C3=O)c[nH]c12` (centres unmarked) [Compound 893-23]: the EC50 in data set [1] (30 hours) is 0.095 µM.
For `CN1C(=O)C(Cc2csc3ccccc23)NC1=S` (centres unmarked) [Compound 893-21, 5-Benzo[b]thiophen-3-ylmethyl-3-methyl-2-thioxo-imidazolidin-4-one], the 50% effective concentration (EC50) in data set [1] (Homo sapiens, Jurkat, 30 h) amounted to 0.845 µM; in data set [2], 8 µM.
Turning to `CN1C(=O)C(Cc2c[nH]c3c(Cl)cc(S(C)(=O)=O)cc23)NC1=S` (centres unmarked) [Compound 893-16, 5-(7-Chloro-5-methanesulfonyl-1H-indol-3-ylmethyl)-3-methyl-2-thioxo-imidazolidin-4-one], the melting point was 242 to 245 °C.
As to `COc1cccc2c(CC3NC(=O)N(C)C3=O)c[nH]c12` (centres unmarked) [Compound 893-25], the EC50 in data set [1] (Homo sapiens, Jurkat, 30 h) came to 0.229 µM.
In the case of `CN1C(=O)NC(Cc2csc3ccccc23)C1=O` (racemic) [Compound 893-39, 5-benzo[b]thiophen-3-ylmethyl-3-methyl-imidazolidine-2,4-dione], in data set [1] (Homo sapiens, Jurkat, 30 h), the concentration for a half-maximal effect (EC50) was found to be 5.4 µM.
Consider `CN1C(=O)C(Cc2c[nH]c3c(Cl)cccc23)N(C)C1=O` (centres unmarked) [Compound 893-36, 5-(7-Chloro-1H-indol-3-ylmethyl)-1,3-dimethyl-imidazolidine-2,4-dione], for which the 50% effective concentration (EC50) in data set [1] (Homo sapiens, Jurkat, 30 h) was above 10 µM.
Regarding `CN1C(=O)NC(Cc2c[nH]c3c(F)cccc23)C1=O` (centres unmarked) [Compound 893-28], the EC50 in data set [1] (Homo sapiens, Jurkat, 30 h) is 0.324 µM.
In turn, `CN1C(=O)C(Cc2c[nH]c3ccccc23)N(C)C1=S` (centres unmarked) [Compound 893-03, 5-(1H-Indol-3-ylmethyl)-1,3-dimethyl-2-thioxo-imidazolidin-4-one] gave a melting point of 132 to 135 °C.
Take `CN1C(=O)NC(Cc2c[nH]c3c(Cl)cc(Cl)cc23)C1=O` (centres unmarked) [Compound 893-33]: the 50% effective concentration (EC50) in data set [1] (Homo sapiens, Jurkat, 30 h) was above 10 µM.
On the same count and under the same terms, under `CN1C(=O)NC(Cc2c[nH]c3c(OCc4ccccc4)cccc23)C1=O` (centres unmarked) [Compound 893-42] stands above 10 µM; under `CN1C(=O)NC(Cc2cn(C)c3c(Cl)cccc23)C1=O` (centres unmarked) [Compound 893-37, 5-(7-Chloro-1-methyl-1H-indol-3-ylmethyl)-3-methyl-imidazolidine-2,4-dione], 1.8 µM; under `O=C1NC(Cc2c[nH]c3c(Cl)cccc23)CO1` (centres unmarked) [Compound 893-51, 4-(7-chloro-1H-indol-3-ylmethyl)-oxazolidin-2-one], above 10 µM.
Same read-out and setting: the same measure for `CCN1C(=O)NC(Cc2c[nH]c3c(Cl)cccc23)C1=O` (centres unmarked) [Compound 893-34]: 0.154 µM.
In the case of `Cc1cccc2c(CC3NC(=O)N(C)C3=O)c[nH]c12` (centres unmarked) [Compound 893-38], the EC50 in data set [1] (30 hours) is above 10 µM.
Turning to `COc1ccc2[nH]cc(CC3NC(=S)N(C)C3=O)c2c1` (centres unmarked) [Compound 893-06, 5-(5-Methoxy-1H-Indol-3-ylmethyl)-3-methyl-2-thioxo-imidazolidin-4-one], the melting point is 181 to 185 °C.
Compound `CN1C(=O)C(C)(Cc2c[nH]c3ccccc23)NC1=S` (centres unmarked) [Compound 893-02, 5-(1H-Indol-3-ylmethyl)-3,5-dimethyl-2-thioxo-imidazolidin-4-one] yielded a melting point of 179 to 182 °C.
In the case of `CN1C(=O)C(Cc2c[nH]c3cc(Cl)ccc23)NC1=S` (centres unmarked) [Compound 893-11, 5-(6-Chloro-1H-indol-3-ylmethyl)-3-methyl-2-thioxo-imidazolidin-4-one], the EC50 in data set [2] came out at 67 µM.
Consider `CN1C(=O)NC(Cc2c[nH]c3c(Cl)c(Cl)ccc23)C1=O` (centres unmarked) [Compound 893-50], for which the EC50 in data set [1] (Homo sapiens, Jurkat, 30 h) was above 10 µM.
On to `CN1C(=O)NC(Cc2c[nH]c3ccccc23)C1=O` (centres unmarked) [Compound 893-20, 3-Methyl-5-(1H-indol-3-ylmethyl)-imidazolidine-2,4-dione], for which, in data set [2], the concentration for a half-maximal effect (EC50) came to 6 µM.
Consider `CCN1C(=O)NC(Cc2c[nH]c3ccccc23)C1=O` (centres unmarked) [Compound 893-04, 3-Ethyl-5-(1H-indol-3-ylmethyl)-imidazolidine-2,4-dione], for which, in data set [2], the 50% effective concentration (EC50) was 10 µM.
Regarding `COCCOc1cccc2c(CC3NC(=O)N(C)C3=O)c[nH]c12` (centres unmarked) [Compound 893-41], the EC50 in data set [1] (Homo sapiens, Jurkat, 30 h) is above 10 µM.
For the compound `CN1C(=O)C(Cc2c[nH]c3c(Br)cccc23)NC1=S` (centres unmarked) [Compound 893-12, 5-(7-Bromo-1H-indol-3-ylmethyl)-3-methyl-2-thioxo-imidazolidin-4-one], the melting point lay in the range of 230 to 233 °C. Besides, the EC50 in data set [2] was 1.8 µM.
As to `CN1C(=O)N[C@H](Cc2c[nH]c3c(Cl)cccc23)C1=O` [Compound 893-32], the EC50 in data set [1] (Homo sapiens, Jurkat, 30 h) was 0.078 µM.
Same read-out and setting: the same measure for `Cc1[nH]c2c(Cl)cccc2c1CC1NC(=O)N(C)C1=O` (centres unmarked) [Compound 893-43]: above 10 µM.
